Experimental data as given in ChEMBL document CHEMBL5303573, “Mapping human microbiome drug metabolism by gut bacteria and their genes” (Nature, 2019).

Key:
[1] = The drug is tested on Alistipes indistinctus strain: DSM22520 for biotransformation. The drug concentrations were measured before and after a 12-h incubation by liquid-chromatography-coupled mass spectrometry (LC–MS); conditions: 2 µM
[2] = The drug is tested on Eubacterium hallii strain: DSM3353 for biotransformation. The drug concentrations were measured before and after a 12-h incubation by liquid-chromatography-coupled mass spectrometry (LC–MS); conditions: anaerobutyricum hallii, 2 µM
[3] = bacteroides stercoris, 12 h, 2 µM
[4] = akkermansia muciniphila, 12 h, 2 µM
[5] = The drug is tested on Bacteroides uniformis strain: ATCC8492 for biotransformation. The drug concentrations were measured before and after a 12-h incubation by liquid-chromatography-coupled mass spectrometry (LC–MS); conditions: 2 µM
[6] = The drug is tested on Bacteroides dorei strain: DSM17855 for biotransformation. The drug concentrations were measured before and after a 12-h incubation by liquid-chromatography-coupled mass spectrometry (LC–MS); conditions: phocaeicola dorei, 2 µM
[7] = The drug is tested on Bacteroides finegoldii strain: DSM17565 for biotransformation. The drug concentrations were measured before and after a 12-h incubation by liquid-chromatography-coupled mass spectrometry (LC–MS); conditions: 2 µM
[8] = The drug is tested on Odoribacter splanchnicus strain: fecal isolate for biotransformation. The drug concentrations were measured before and after a 12-h incubation by liquid-chromatography-coupled mass spectrometry (LC–MS); conditions: 2 µM
[9] = The drug is tested on Collinsella aerofaciens strain: ATCC25986 for biotransformation. The drug concentrations were measured before and after a 12-h incubation by liquid-chromatography-coupled mass spectrometry (LC–MS); conditions: 2 µM
[10] = The drug is tested on Clostridium ramosum strain: DSM1402 for biotransformation. The drug concentrations were measured before and after a 12-h incubation by liquid-chromatography-coupled mass spectrometry (LC–MS); conditions: thomasclavelia ramosa, 2 µM
[11] = The drug is tested on Escherichia coli strain: BW25113 for biotransformation. The drug concentrations were measured before and after a 12-h incubation by liquid-chromatography-coupled mass spectrometry (LC–MS); conditions: 2 µM
[12] = The drug is tested on Clostridium scindens strain: ATCC35704 for biotransformation. The drug concentrations were measured before and after a 12-h incubation by liquid-chromatography-coupled mass spectrometry (LC–MS); conditions: 2 µM
[13] = The drug is tested on Edwardsiella tarda strain: ATCC23685 for biotransformation. The drug concentrations were measured before and after a 12-h incubation by liquid-chromatography-coupled mass spectrometry (LC–MS); conditions: 2 µM
[14] = The drug is tested on Bacteroides vulgatus strain: ATCC8482 for biotransformation. The drug concentrations were measured before and after a 12-h incubation by liquid-chromatography-coupled mass spectrometry (LC–MS); conditions: phocaeicola vulgatus, 2 µM
[15] = The drug is tested on Anaerococcus hydrogenalis strain: DSM7454 for biotransformation. The drug concentrations were measured before and after a 12-h incubation by liquid-chromatography-coupled mass spectrometry (LC–MS); conditions: 2 µM
[16] = The drug is tested on Collinsella intestinalis strain: DSM13280 for biotransformation. The drug concentrations were measured before and after a 12-h incubation by liquid-chromatography-coupled mass spectrometry (LC–MS); conditions: 2 µM
[17] = The drug is tested on Bacteroides fragilis strain: HMW615 for biotransformation. The drug concentrations were measured before and after a 12-h incubation by liquid-chromatography-coupled mass spectrometry (LC–MS); conditions: 2 µM
[18] = The drug is tested on Clostridium sporogenes strain: ATCC15579 for biotransformation. The drug concentrations were measured before and after a 12-h incubation by liquid-chromatography-coupled mass spectrometry (LC–MS); conditions: 2 µM
[19] = bacteroides thetaiotaomicron, 12 h, 2 µM

CCCc1nc2c(C)cc(-c3nc4ccccc4n3C)cc2n1Cc1ccc(-c2ccccc2C(=O)O)cc1
Bacterial Biotransformation [1]: Compound NOT metabolized
Bacterial Biotransformation [2]: Compound NOT metabolized
Bacterial Biotransformation [3]: Compound metabolized
Bacterial Biotransformation [4]: Compound NOT metabolized
Bacterial Biotransformation [5]: Compound metabolized
Bacterial Biotransformation [6]: Compound metabolized
Bacterial Biotransformation [7]: Compound NOT metabolized
Bacterial Biotransformation [8]: Compound metabolized
Bacterial Biotransformation [9]: Compound NOT metabolized
Bacterial Biotransformation [10]: Compound NOT metabolized
Bacterial Biotransformation [11]: Compound NOT metabolized
Bacterial Biotransformation [12]: Compound NOT metabolized
Bacterial Biotransformation [13]: Compound NOT metabolized
Bacterial Biotransformation [14]: Compound metabolized
Bacterial Biotransformation [15]: Compound NOT metabolized

CCN(CC)CCNC(C(=O)OCCC(C)C)c1ccccc1.Cl.Cl (stereo unspecified)
Bacterial Biotransformation [1]: Compound NOT metabolized
Bacterial Biotransformation [2]: Compound NOT metabolized
Bacterial Biotransformation [4]: Compound NOT metabolized
Bacterial Biotransformation [16]: Compound NOT metabolized
Bacterial Biotransformation [7]: Compound NOT metabolized
Bacterial Biotransformation [8]: Compound NOT metabolized
Bacterial Biotransformation [9]: Compound NOT metabolized
Bacterial Biotransformation [10]: Compound NOT metabolized
Bacterial Biotransformation [12]: Compound NOT metabolized
Bacterial Biotransformation [13]: Compound NOT metabolized
Bacterial Biotransformation [17]: Compound NOT metabolized
Bacterial Biotransformation [18]: Compound NOT metabolized
Bacterial Biotransformation [14]: Compound NOT metabolized
Bacterial Biotransformation [15]: Compound NOT metabolized

COc1ccc(CCN(C)CCCC(C#N)(c2ccc(OC)c(OC)c2)C(C)C)cc1OC (stereo unspecified)
Bacterial Biotransformation [1]: Compound NOT metabolized
Bacterial Biotransformation [2]: Compound metabolized
Bacterial Biotransformation [3]: Compound metabolized
Bacterial Biotransformation [4]: Compound metabolized
Bacterial Biotransformation [5]: Compound metabolized
Bacterial Biotransformation [16]: Compound NOT metabolized
Bacterial Biotransformation [7]: Compound NOT metabolized
Bacterial Biotransformation [8]: Compound metabolized
Bacterial Biotransformation [9]: Compound NOT metabolized
Bacterial Biotransformation [13]: Compound NOT metabolized
Bacterial Biotransformation [17]: Compound NOT metabolized
Bacterial Biotransformation [14]: Compound metabolized
Bacterial Biotransformation [19]: Compound metabolized
Bacterial Biotransformation [15]: Compound NOT metabolized

CN1CC(=O)N2[C@H](c3ccc4c(c3)OCO4)c3[nH]c4ccccc4c3C[C@@H]2C1=O
Bacterial Biotransformation [1]: Compound NOT metabolized
Bacterial Biotransformation [2]: Compound NOT metabolized
Bacterial Biotransformation [3]: Compound NOT metabolized
Bacterial Biotransformation [4]: Compound NOT metabolized
Bacterial Biotransformation [5]: Compound NOT metabolized
Bacterial Biotransformation [16]: Compound NOT metabolized
Bacterial Biotransformation [7]: Compound NOT metabolized
Bacterial Biotransformation [9]: Compound NOT metabolized
Bacterial Biotransformation [10]: Compound NOT metabolized
Bacterial Biotransformation [12]: Compound NOT metabolized
Bacterial Biotransformation [13]: Compound NOT metabolized
Bacterial Biotransformation [17]: Compound metabolized
Bacterial Biotransformation [19]: Compound metabolized
Bacterial Biotransformation [15]: Compound NOT metabolized

CCCCCCOC(=O)/N=C(/N)c1ccc(NCc2nc3cc(C(=O)N(CCC(=O)OCC)c4ccccn4)ccc3n2C)cc1.CS(=O)(=O)O [DABIGATRAN ETEXILATE MESYLATE]
Bacterial Biotransformation [1]: Compound NOT metabolized
Bacterial Biotransformation [2]: Compound NOT metabolized
Bacterial Biotransformation [3]: Compound NOT metabolized
Bacterial Biotransformation [4]: Compound NOT metabolized
Bacterial Biotransformation [5]: Compound NOT metabolized
Bacterial Biotransformation [6]: Compound NOT metabolized
Bacterial Biotransformation [16]: Compound NOT metabolized
Bacterial Biotransformation [7]: Compound NOT metabolized
Bacterial Biotransformation [8]: Compound NOT metabolized
Bacterial Biotransformation [9]: Compound NOT metabolized
Bacterial Biotransformation [10]: Compound NOT metabolized
Bacterial Biotransformation [11]: Compound NOT metabolized
Bacterial Biotransformation [12]: Compound NOT metabolized
Bacterial Biotransformation [13]: Compound NOT metabolized
Bacterial Biotransformation [18]: Compound NOT metabolized
Bacterial Biotransformation [14]: Compound NOT metabolized
Bacterial Biotransformation [15]: Compound NOT metabolized

NC(CO)(CO)CO.O=C(c1ccccc1)c1ccc2n1CCC2C(=O)O (stereo unspecified) [KETOROLAC TROMETHAMINE]
Bacterial Biotransformation [1]: Compound NOT metabolized
Bacterial Biotransformation [5]: Compound metabolized
Bacterial Biotransformation [6]: Compound metabolized
Bacterial Biotransformation [8]: Compound NOT metabolized
Bacterial Biotransformation [9]: Compound NOT metabolized
Bacterial Biotransformation [10]: Compound NOT metabolized
Bacterial Biotransformation [11]: Compound NOT metabolized
Bacterial Biotransformation [12]: Compound NOT metabolized
Bacterial Biotransformation [18]: Compound NOT metabolized
Bacterial Biotransformation [14]: Compound metabolized
Bacterial Biotransformation [19]: Compound metabolized
Bacterial Biotransformation [15]: Compound NOT metabolized

CN[C@H]1CC[C@@H](c2ccc(Cl)c(Cl)c2)c2ccccc21 [SERTRALINE]
Bacterial Biotransformation [1]: Compound NOT metabolized
Bacterial Biotransformation [2]: Compound NOT metabolized
Bacterial Biotransformation [3]: Compound NOT metabolized
Bacterial Biotransformation [5]: Compound NOT metabolized
Bacterial Biotransformation [6]: Compound NOT metabolized
Bacterial Biotransformation [16]: Compound NOT metabolized
Bacterial Biotransformation [7]: Compound NOT metabolized
Bacterial Biotransformation [8]: Compound NOT metabolized
Bacterial Biotransformation [9]: Compound NOT metabolized
Bacterial Biotransformation [10]: Compound NOT metabolized
Bacterial Biotransformation [11]: Compound NOT metabolized
Bacterial Biotransformation [12]: Compound NOT metabolized
Bacterial Biotransformation [13]: Compound NOT metabolized
Bacterial Biotransformation [18]: Compound NOT metabolized
Bacterial Biotransformation [14]: Compound NOT metabolized
Bacterial Biotransformation [19]: Compound NOT metabolized
Bacterial Biotransformation [15]: Compound NOT metabolized

Nc1c2c(nc3ccccc13)CCCC2 [TACRINE]
Bacterial Biotransformation [1]: Compound NOT metabolized
Bacterial Biotransformation [2]: Compound NOT metabolized
Bacterial Biotransformation [3]: Compound NOT metabolized
Bacterial Biotransformation [5]: Compound NOT metabolized
Bacterial Biotransformation [6]: Compound NOT metabolized
Bacterial Biotransformation [16]: Compound NOT metabolized
Bacterial Biotransformation [7]: Compound NOT metabolized
Bacterial Biotransformation [9]: Compound NOT metabolized
Bacterial Biotransformation [10]: Compound NOT metabolized
Bacterial Biotransformation [12]: Compound NOT metabolized
Bacterial Biotransformation [13]: Compound NOT metabolized
Bacterial Biotransformation [17]: Compound NOT metabolized
Bacterial Biotransformation [18]: Compound NOT metabolized
Bacterial Biotransformation [14]: Compound NOT metabolized
Bacterial Biotransformation [19]: Compound NOT metabolized
Bacterial Biotransformation [15]: Compound NOT metabolized

N#Cc1ccc2[nH]cc(CCCCN3CCN(c4ccc5oc(C(N)=O)cc5c4)CC3)c2c1 [VILAZODONE]
Bacterial Biotransformation [1]: Compound metabolized
Bacterial Biotransformation [2]: Compound NOT metabolized
Bacterial Biotransformation [3]: Compound metabolized
Bacterial Biotransformation [4]: Compound NOT metabolized
Bacterial Biotransformation [5]: Compound metabolized
Bacterial Biotransformation [6]: Compound metabolized
Bacterial Biotransformation [16]: Compound NOT metabolized
Bacterial Biotransformation [8]: Compound metabolized
Bacterial Biotransformation [9]: Compound NOT metabolized
Bacterial Biotransformation [12]: Compound NOT metabolized
Bacterial Biotransformation [13]: Compound NOT metabolized
Bacterial Biotransformation [17]: Compound metabolized
Bacterial Biotransformation [18]: Compound metabolized
Bacterial Biotransformation [14]: Compound metabolized
Bacterial Biotransformation [19]: Compound metabolized
Bacterial Biotransformation [15]: Compound NOT metabolized

CS(=O)(=O)O.O.O.O.O=C1Cc2cc(CCN3CCN(c4nsc5ccccc45)CC3)c(Cl)cc2N1 [ZIPRASIDONE MESYLATE]
Bacterial Biotransformation [1]: Compound metabolized
Bacterial Biotransformation [3]: Compound NOT metabolized
Bacterial Biotransformation [4]: Compound NOT metabolized
Bacterial Biotransformation [5]: Compound NOT metabolized
Bacterial Biotransformation [6]: Compound NOT metabolized
Bacterial Biotransformation [16]: Compound NOT metabolized
Bacterial Biotransformation [7]: Compound NOT metabolized
Bacterial Biotransformation [9]: Compound NOT metabolized
Bacterial Biotransformation [10]: Compound NOT metabolized
Bacterial Biotransformation [11]: Compound metabolized
Bacterial Biotransformation [12]: Compound NOT metabolized
Bacterial Biotransformation [13]: Compound NOT metabolized
Bacterial Biotransformation [17]: Compound NOT metabolized
Bacterial Biotransformation [14]: Compound metabolized
Bacterial Biotransformation [19]: Compound NOT metabolized
Bacterial Biotransformation [15]: Compound NOT metabolized
